Laboratory results taken from DBAASP.
≈ marks a conversion by molar mass, not a printed value. Where “and” joins values, the source holds several entries; their conditions need not be identical. Identical values can stand only once. Values belong to the compound of their own block, whether it stands above or below them.

Tests used:
Experiment in all cases: ≥ marks a high value that may be exact or a test limit, other limits are often not marked, values filed in µg/mL are converted to µM
[1] = tested on: Candida glabrata 090902
[2] = tested on: Enterococcus faecalis 981
[3] = tested on: Nocardia asteroides
[4] = tested on: Psychrobacter faecalis X29
[5] = tested on: Staphylococcus aureus ATCC 25923
[6] = tested on: Enterococcus faecalis ATCC 29212
[7] = tested on: Bacillus megaterium Bm11
[8] = tested on: Pseudomonas aeruginosa ATCC 27853
[9] = tested on: Escherichia coli ATCC 25922
[10] = tested on: Acinetobacter calcoaceticus Ac11
[11] = tested on: Escherichia coli ATCC BAA-3051
[12] = tested on: Escherichia coli D21
[13] = tested on: Staphylococcus aureus ATCC 33591
[14] = tested on: Staphylococcus aureus ATCC 29213
[15] = tested on: Salmonella enterica subsp. enterica serovar Typhimurium LT2
[16] = tested on: Micrococcus luteus ATCC 9341
[17] = tested on: Bacillus subtilis ATCC 6051
[18] = tested on: Salmonella typhimurium SL1344
[19] = tested on: Escherichia coli SBS 363
[20] = tested on: Micrococcus luteus CIP 5345
[21] = tested on: Fusarium oxysporum
[22] = tested on: Botrytis cinerea
[23] = tested on: Bacillus megaterium KCTC 1096
[24] = tested on: Aspergillus flavus KCTC 7375
[25] = tested on: Escherichia coli KCTC 1682
[26] = tested on: Fusarium oxysporum KCTC 6084
[27] = tested on: Trichosporon beigelii KCTC 7251
[28] = tested on: Pseudomonas aeruginosa KCTC 1637
[29] = tested on: Proteus vulgaris
[30] = tested on: Staphylococcus aureus KCTC 1621
[31] = tested on: Candida albicans KCTC 7121
[32] = tested on: Bacillus subtilis KCTC 1918
[33] = tested on: Escherichia coli W160-37
[34] = tested on: Staphylococcus aureus
[35] = tested on: Staphylococcus aureus ATCC 25929
[36] = tested on: Salmonella enterica subsp. enterica serovar Typhimurium C77-31
[37] = tested on: Candida albicans ATCC 10231
[38] = tested on: Salmonella enterica subsp. enterica serovar Enteritidis
[39] = tested on: Staphylococcus pseudintermedius
[40] = tested on: Staphylococcus epidermidis ATCC 12228
[41] = tested on: Aeromonas veronii biovar sobria BJCP-5
[42] = tested on: Salmonella enterica subsp. enterica serovar Pullorum C79-13
[43] = tested on: Bacillus subtilis CMCC 63501

Structure (SMILES): CC[C@H](C)[C@H](NC(=O)[C@H](CC(C)C)NC(=O)CNC(=O)[C@@H](NC(=O)[C@@H](NC(=O)[C@@H](N)Cc1ccccc1)[C@@H](C)CC)[C@@H](C)O)C(=O)N[C@@H](CO)C(=O)NCC(=O)N[C@@H](CC(C)C)C(=O)N[C@@H](CCSC)C(=O)N[C@@H](CCCCN)C(=O)N[C@@H](C)C(=O)N[C@@H](CC(C)C)C(N)=O [FITGLISGLMKAL]
MIC [1]: ≥ 100 µM
MIC [2]: 25 µM (≈ 34.1 µg/mL)
MIC [3]: 12.5 µM (≈ 17 µg/mL)
MIC [4]: ≥ 200 µM
MIC [5]: 12.5 µM (≈ 17 µg/mL)

Structure (SMILES): CC[C@H](C)[C@H](N=C(O)[C@H](CC(C)C)N=C(O)[C@H](C)N=C(O)[C@H](Cc1ccccc1)N=C(O)[C@H](Cc1ccccc1)N=C(O)CN)C(=O)N1CCC[C@H]1C(O)=N[C@@H](CCCCN)C(O)=N[C@H](C(O)=N[C@H](C(O)=N[C@@H](CO)C(O)=N[C@@H](CO)C(=O)N1CCC[C@H]1C(O)=N[C@@H](CC(C)C)C(O)=N[C@@H](Cc1ccccc1)C(O)=N[C@@H](CCCCN)C(O)=N[C@H](C(O)=N[C@@H](CC(C)C)C(O)=N[C@@H](CC(C)C)C(O)=N[C@@H](CO)C(O)=N[C@@H](C)C(O)=N[C@H](C(O)=NCCN)C(C)C)[C@@H](C)O)[C@@H](C)CC)[C@@H](C)CC [GFFALIPKIISSPLFKTLLSAV]
MIC [6]: 3.3 µM (≈ 7.94 µg/mL)
MIC [7]: 6.2 µM (≈ 14.9 µg/mL)
MIC [8]: > 100 µM
MIC [9]: 13.2 µM (≈ 31.9 µg/mL)
MIC [10]: ≥ 100 µM
MIC [11]: 13.2 µM (≈ 31.9 µg/mL)
MIC [12]: ≥ 100 µM
MIC [13]: 3.3 µM (≈ 7.94 µg/mL)
MIC [14]: 3.3 µM (≈ 7.94 µg/mL)
MIC [15]: ≥ 100 µM
MIC [16]: ≥ 100 µM
MIC [17]: 20 µM (≈ 48.1 µg/mL)
MIC [18]: ≥ 52.9 µM

Structure (SMILES): CC[C@H](C)[C@H](N)C(=O)N[C@@H](CC(C)C)C(=O)N[C@@H](CCC(=O)O)C(=O)N[C@@H](CC(N)=O)C(=O)N[C@@H](CC(C)C)C(=O)N[C@@H](CC(C)C)C(=O)N[C@@H](C)C(=O)N[C@@H](CCCN=C(N)N)C(=O)N[C@@H](CO)C(=O)N[C@H](C(=O)N[C@@H](CC(N)=O)C(=O)N[C@@H](CCC(=O)O)C(=O)N[C@@H](CC(=O)O)C(=O)N[C@@H](CCCN=C(N)N)C(=O)N[C@@H](CCC(=O)O)C(=O)NCC(=O)N[C@@H](CO)C(=O)N[C@H](C(=O)N[C@@H](Cc1ccccc1)C(=O)O)[C@@H](C)CC)[C@@H](C)O [ILENLLARSTNEDREGSIF]
MIC [19]: ≥ 200 µM
MIC [20]: ≥ 200 µM
MIC [21]: ≥ 200 µM
MIC [22]: ≥ 200 µM

Structure (SMILES): CC[C@H](C)[C@H](NC(=O)[C@H](CCCCN)NC(=O)[C@H](CCCCN)NC(=O)[C@H](Cc1ccccc1)NC(=O)[C@H](CC(C)C)NC(=O)[C@H](CCCCN)NC(=O)[C@H](Cc1c[nH]c2ccccc12)NC(=O)[C@@H](N)CCCCN)C(=O)N1CCC[C@H]1C(=O)N[C@@H](CCCCN)C(=O)N[C@@H](Cc1ccccc1)C(=O)N[C@@H](CC(C)C)C(=O)N[C@@H](Cc1cnc[nH]1)C(=O)N[C@@H](CC(C)C)C(=O)N[C@@H](C)C(=O)N[C@@H](CCCCN)C(N)=O [KWKLFKKIPKFLHLAK]
MIC [23]: 3.12 µM (≈ 6.33 µg/mL)
MIC [24]: ≥ 50 µM
MIC [25]: 4.42 µM (≈ 8.95 µg/mL)
MIC [26]: ≥ 50 µM
MIC [27]: ≥ 50 µM
MIC [28]: 6.25 µM (≈ 12.7 µg/mL)
MIC [29]: 1.56 µM (≈ 3.16 µg/mL)
MIC [30]: 3.12 µM (≈ 6.33 µg/mL)
MIC [31]: ≥ 50 µM
MIC [32]: 1.56 µM (≈ 3.16 µg/mL)

Continued, in another order:

MIC [33]: 24 µM (≈ 34.3 µg/mL)
MIC [34]: 14 µM (≈ 20 µg/mL)
Structure (SMILES): CC[C@H](C)[C@H](NC(=O)[C@H](Cc1c[nH]c2ccccc12)NC(=O)[C@H](CCCCN)NC(=O)[C@H](CO)NC(=O)[C@H](CC(C)C)NC(=O)[C@H](Cc1ccccc1)NC(=O)[C@H](CCCCN)NC(=O)[C@H](CC(C)C)NC(=O)[C@H](CC(C)C)NC(=O)[C@H](CCCCN)NC(=O)[C@@H]1CCCN1)C(=O)NCC(=O)O [PKLLKFLSKWIG]

MIC [9]: 17 µM (≈ 32.2 µg/mL)
MIC [35]: 17 µM (≈ 32.2 µg/mL)
Structure (SMILES): CC(C)C[C@H](NC(=O)CNC(=O)[C@H](C)NC(=O)[C@H](CC(C)C)NC(=O)[C@H](CC(C)C)NC(=O)[C@@H](NC(=O)[C@H](CCCCN)NC(=O)[C@H](CC(C)C)NC(=O)[C@H](CC(C)C)NC(=O)[C@H](C)NC(=O)[C@@H]1CCCN1C(=O)[C@H](CC(C)C)NC(=O)[C@H](C)NC(=O)[C@@H](NC(=O)CNC(=O)[C@H](CC(C)C)NC(=O)[C@@H](N)CCCN=C(N)N)[C@@H](C)O)[C@@H](C)O)C(=O)N[C@@H](CC(N)=O)C(=O)NCC(N)=O [RLGTALPALLKTLLAGLNG]

MIC [6]: 2 µM (≈ 9.48 µg/mL)
MIC [36]: 2.23 µM (≈ 10.6 µg/mL)
MIC [37]: 16 µM (≈ 75.8 µg/mL)
MIC [38]: 4 µM (≈ 19 µg/mL)
MIC [39]: ≥ 54 µM
MIC [40]: 2.23 µM (≈ 10.6 µg/mL)
MIC [14]: 54 µM and > 27 µM
MIC [42]: 2.23 µM (≈ 10.6 µg/mL)
MIC [43]: 8 µM (≈ 37.9 µg/mL)
MIC [5]: 0.569 µM (≈ 2.7 µg/mL)
Structure (SMILES): CC[C@H](C)[C@H](NC(=O)[C@@H]1CCCN1C(=O)[C@@H](N)CO)C(=O)N[C@@H](Cc1cnc[nH]1)C(=O)N[C@@H](C)C(=O)N[C@H]1CSSC[C@@H]2NC(=O)[C@H](CO)NC(=O)[C@H](CCCCN)NC(=O)[C@H](CC(C)C)NC(=O)CNC(=O)[C@H](CO)NC(=O)CNC(=O)[C@@H]3CSSC[C@H](NC(=O)[C@H](C(C)C)NC(=O)CNC(=O)[C@H](CCCN=C(N)N)NC(=O)[C@H](CCC(N)=O)NC(=O)[C@H](Cc4ccc(O)cc4)NC(=O)[C@H](CCCN=C(N)N)NC1=O)C(=O)N[C@@H]([C@@H](C)CC)C(=O)N1CCC[C@H]1C(=O)NCC(=O)N1CCC[C@H]1C(=O)N[C@@H](CSSC[C@@H](C(=O)N[C@H](C(=O)N[C@@H](CCCN=C(N)N)C(=O)N[C@@H](CC(N)=O)C(=O)N[C@@H](CCCN=C(N)N)C(=O)N[C@@H](Cc1c[nH]c4ccccc14)C(=O)N[C@@H](C)C(=O)O)C(C)C)NC2=O)C(=O)N[C@@H](CCCN=C(N)N)C(=O)N[C@@H](Cc1c[nH]c2ccccc12)C(=O)N1CCC[C@H]1C(=O)N[C@@H](Cc1ccc(O)cc1)C(=O)N[C@@H](Cc1ccc(O)cc1)C(=O)N[C@@H](CCCN=C(N)N)C(=O)N[C@@H](C(C)C)C(=O)NCC(=O)N[C@@H](CO)C(=O)N3 [SPIHACRYQRGVCIPGPCRWPYYRVGSCGSGLKSCCVRNRWA]
MIC [41]: 0.5 µM (≈ 2.37 µg/mL)
